Results on 28 molecules are retold here after US9708305B2, “Substituted 1,2,3,4-tetrahydroisoquinoline derivatives for the treatment of hormone-dependent diseases” (UNIVERSITÉ LAVAL, priority 2013, dated 2017).

Molecules are shown by their SMILES.

The target in one assay is T1, STS (Homo sapiens, UniProt P08842).
T1 construct: expressed in transfected cells; host or cells: HEK-293 cells stably transfected with STS (G418 selection), obtained from Dr. Van Luu-The; used as freeze-thaw homogenate
T1 sequence (P08842 22-583): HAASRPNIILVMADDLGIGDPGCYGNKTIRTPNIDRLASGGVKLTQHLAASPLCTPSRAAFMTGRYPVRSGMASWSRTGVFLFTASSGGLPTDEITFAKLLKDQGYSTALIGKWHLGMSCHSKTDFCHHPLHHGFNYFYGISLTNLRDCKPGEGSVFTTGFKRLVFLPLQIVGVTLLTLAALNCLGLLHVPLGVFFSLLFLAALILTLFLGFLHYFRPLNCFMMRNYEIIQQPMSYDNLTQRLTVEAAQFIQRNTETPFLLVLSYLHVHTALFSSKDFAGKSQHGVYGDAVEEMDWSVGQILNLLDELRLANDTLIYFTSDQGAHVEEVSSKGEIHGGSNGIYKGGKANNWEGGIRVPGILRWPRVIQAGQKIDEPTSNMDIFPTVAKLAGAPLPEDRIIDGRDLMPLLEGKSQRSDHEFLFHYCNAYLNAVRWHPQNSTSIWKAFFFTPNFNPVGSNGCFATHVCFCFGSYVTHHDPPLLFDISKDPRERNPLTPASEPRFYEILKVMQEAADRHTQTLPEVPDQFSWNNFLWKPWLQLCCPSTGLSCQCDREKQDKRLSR
In words: STS inhibition of libraries 1-EO to 4-EO, homogenate of STS transfected HEK-293 cells. It counts as biochemical. Conditions: mean ± SEM, triplicate. On the procedure: The enzymatic assay was performed using homogenate of STS transfected HEK-293 cells as the source of enzyme activity. The transformation of [^3H]-E1S into [^3H]-E1 was measured using scintillation counting of labeled E1S and E1 in the aqueous and organic phases, respectively. Newly synthesized sulfamate compounds were tested at two concentrations (0.1 μM and 1 μM). Libraries 1-EO and 2-EO were synthesized using the p- and m-benzamide spacers as 1st level of molecular diversity and the same wide variety of secondary amines as 2nd level of diversity (Table 2), which were chosen in a somewhat random fashion while including a different pattern, format and heteroatom. […] Compounds 1-EO-07, 1-EO-09 and 1-EO-10 represent a starting point for optimization, as they show more than 36% of inhibition when tested at a concentration of 0.1 μM. These compounds have relatively hydrophobic substituents compared to the rest of the library members. […] The average log P value for the rest of the library, excluding these three compounds, is 1.93.
This enzymatic assay was carried out according to a procedure previously described for the transformation of substrate [^3H]-E1S (100 μM) into [^3H]-E1 by homogenated HEK-293 cells over-expressing the enzyme activity.^56,73

The subject of the next assay is T-47D cells. In words: T-47D cell proliferation (estrogenicity / cytotoxicity), MTS. It is filed as cell-based. To be noted: Homo sapiens, T47D, control cells set to 100%, mean±SD. On the procedure:
The library of phenolic compounds described above was tested on estrogen-sensitive breast cancer T-47D cells.
In Table 1, cell proliferation of control cells is set to 100%. Results are expressed as mean±SD of one experiment in triplicate.
CellTitter 96® Aqueous One Solution Cell Proliferation Assay was used as an indirect colorimetric measurement of cell proliferation according to the manufacturer's instructions. Briefly, after the treatments, 20 μL of MTS solution was added to each well (100 μL) of the plates and incubated at 37° C. for 2 h (Saos-2) or 4 h (T-47D). The absorbance at 490 nm was then measured with a Thermo max microplate reader (Molecular Devices, Sunnyvale, Calif.). The control (culture media+DMSO) is set to 100% of cell proliferation.
The cells were plated in 96-well plates at a density of 3 000 cells/well and allowed to attach for 48 h. After this pre-incubation, the inhibitors and the reference compounds diluted in fresh culture media were added to the wells and replaced every 2 days for 7 days of treatment.

Take `CCN(Cc1ccc(F)cc1)Cc1ccc(C(=O)N2CCc3ccc(OS(N)(=O)=O)cc3C2)cc1` [3-EO-17]: the “STS inhibition (%)” value on STS (0.1 μM) amounted to 69.1 ± 1.9%; at STS (1 μM), 91.2 ± 2.7%.

As for `CCCN(Cc1ccccc1)Cc1cccc(C(=O)N2CCc3ccc(OS(N)(=O)=O)cc3C2)c1` [4-EO-01], the “STS inhibition (%)” value was 23.1 ± 7.5% on STS (0.1 μM) and 67.4 ± 10.9% on STS (1 μM).

As for `NS(=O)(=O)Oc1ccc2c(c1)CN(C(=O)c1cccc(CN(CCO)Cc3ccccc3)c1)CC2` [4-EO-02], the “STS inhibition (%)” value was 26.7 ± 7.2% on STS (0.1 μM) and 32.4 ± 6.3% on STS (1 μM).

Take `NS(=O)(=O)Oc1ccc2c(c1)CN(C(=O)c1cccc(CN(CCCO)Cc3ccccc3)c1)CC2` [4-EO-03]: the “STS inhibition (%)” value is 25.8 ± 3.9% at STS (0.1 μM) and 37.3 ± 7.0% on STS (1 μM).

Turning to `CN(C)CCN(Cc1ccccc1)Cc1cccc(C(=O)N2CCc3ccc(OS(N)(=O)=O)cc3C2)c1` [4-EO-04], the “STS inhibition (%)” value on STS (0.1 μM) stood at 0.0 ± 0.0%; at STS (1 μM), 28.6 ± 2.2%.

On to `CN(C)CCCN(Cc1ccccc1)Cc1cccc(C(=O)N2CCc3ccc(OS(N)(=O)=O)cc3C2)c1` [4-EO-05], for which the “STS inhibition (%)” value is on record as 23.8 ± 4.1% at STS (0.1 μM) and 26.0 ± 8.5% at STS (1 μM).

For the molecule `CN(CCN1CCCCC1)Cc1cccc(C(=O)N2CCc3ccc(OS(N)(=O)=O)cc3C2)c1` [4-EO-06], the “STS inhibition (%)” value at STS (0.1 μM) turned out to be 24.5 ± 7.4%; on STS (1 μM) it was 30.8 ± 6.4%.

In the case of `CN(CCCN1CCCCC1)Cc1cccc(C(=O)N2CCc3ccc(OS(N)(=O)=O)cc3C2)c1` [4-EO-07], the “STS inhibition (%)” value worked out at 24.1 ± 0.4% on STS (0.1 μM) and 30.6 ± 6.9% at STS (1 μM).

With `CN(C)CCN(CCN(C)C)Cc1cccc(C(=O)N2CCc3ccc(OS(N)(=O)=O)cc3C2)c1` [4-EO-08], the “STS inhibition (%)” value came out at 0.0 ± 0.0% at STS (0.1 μM) and 17.1 ± 7.6% at STS (1 μM).

Regarding `CC(C)CCN(CCC(C)C)Cc1cccc(C(=O)N2CCc3ccc(OS(N)(=O)=O)cc3C2)c1` [4-EO-09], at STS (0.1 μM), the “STS inhibition (%)” value is listed as 32.3 ± 2.9%.

On to `NS(=O)(=O)Oc1ccc2c(c1)CN(C(=O)c1cccc(CN3CCc4ccccc4C3)c1)CC2` [4-EO-10], for which the “STS inhibition (%)” value came out at 24.1 ± 5.6% on STS (0.1 μM) and 50.2 ± 1.9% at STS (1 μM).

In the case of `NS(=O)(=O)Oc1ccc2c(c1)CN(C(=O)c1cccc(CN(Cc3ccccc3)Cc3ccco3)c1)CC2` [4-EO-11], the “STS inhibition (%)” value at STS (0.1 μM) was 27.5 ± 0.9%.

`CCN(Cc1cccc(Br)c1)Cc1cccc(C(=O)N2CCc3ccc(OS(N)(=O)=O)cc3C2)c1` [4-EO-12]: the figures for the “STS inhibition (%)” value at STS (0.1 μM) and on STS (1 μM) were 20.9 ± 7.1% and 24.9 ± 0.6%, respectively.

As to `CCN(Cc1ccc(Br)cc1)Cc1cccc(C(=O)N2CCc3ccc(OS(N)(=O)=O)cc3C2)c1` [4-EO-13], the “STS inhibition (%)” value at STS (0.1 μM) came out at 24.2 ± 4.9%.

In the case of `CCN(Cc1cccc(C(=O)N2CCc3ccc(OS(N)(=O)=O)cc3C2)c1)Cc1ccccn1` [4-EO-14], the “STS inhibition (%)” value at STS (0.1 μM) was 6.5 ± 6.9%; at STS (1 μM), 19.9 ± 12.6%.

`CCN(Cc1cccnc1)Cc1cccc(C(=O)N2CCc3ccc(OS(N)(=O)=O)cc3C2)c1` [4-EO-15]: the results for the “STS inhibition (%)” value on STS (0.1 μM) and on STS (1 μM) were 14.3 ± 4.7% and 33.5 ± 5.8%, respectively.

For `CCN(Cc1ccncc1)Cc1cccc(C(=O)N2CCc3ccc(OS(N)(=O)=O)cc3C2)c1` [4-EO-16], the “STS inhibition (%)” value at STS (0.1 μM) is 33.3 ± 0.0%; at STS (1 μM) it was 52.8 ± 1.3%.

Take `CCN(Cc1ccc(F)cc1)Cc1cccc(C(=O)N2CCc3ccc(OS(N)(=O)=O)cc3C2)c1` [4-EO-17]: the “STS inhibition (%)” value on STS (0.1 μM) is recorded as 10.9 ± 7.4%; at STS (1 μM) it was 66.5 ± 4.5%.

As usually defined, the inhibition is how much of the control response was suppressed. The low end stands for a weak effect, the high end for a strong effect. Take `CCN(Cc1ccccc1)Cc1ccc(CN2CCc3ccc(OS(N)(=O)=O)cc3C2)cc1` [Compound 11]: testing at 0.1 µM on STS (0.1 μM) gave an inhibition of 1%. The molecule also gave an inhibition at 1 µM at STS (1 μM) of 17%.

As to `CCN(Cc1ccccc1)Cc1ccc(S(=O)(=O)N2CCc3ccc(OS(N)(=O)=O)cc3C2)cc1` [Compound 14], at 0.1 µM the inhibition at STS (0.1 μM) was 10%. The molecule further gave an inhibition at 1 µM against STS (1 μM) of 31%.

As to `O=C(c1ccc(CN(Cc2ccccn2)Cc2ccccc2OCCCN2CCCCC2)cc1)N1CCc2ccc(O)cc2C1` [Compound 19, (7-hydroxy-3,4-dihydroisoquinolin-2(1H)-yl)(4-{[{2-[3-(piperidin-1-yl)propoxy]benzyl}(pyridin-2-ylmethyl)amino]methyl}phenyl)methanone], in the assay on T-47D cells, the activity at 0.01 µM is 103 ± 6.9%, the activity at 0.1 µM amounted to 99.8 ± 4.2% and the activity at 1 µM amounted to 37.1 ± 4.2%.

`O=C(c1ccc(CN(Cc2ccc(OCCCN3CCCCC3)cc2)Cc2ccccn2)cc1)N1CCc2ccc(O)cc2C1` [Compound 20, (7-hydroxy-3,4-dihydroisoquinolin-2(1H)-yl)(4-{[{4-[3-(piperidin-1-yl)propoxy]benzyl}(pyridin-2-ylmethyl)amino]methyl}phenyl)methanone]: in the assay on T-47D cells, the activity at 0.01 µM was found to be 105.9 ± 1%, the activity at 0.1 µM amounted to 104 ± 4.8% and the activity at 1 µM turned out to be 60.7 ± 6.4%.

For the molecule `O=C(c1ccc(CN(Cc2ccco2)Cc2ccccc2OCCCN2CCCCC2)cc1)N1CCc2ccc(O)cc2C1` [Compound 21], in the assay on T-47D cells, the activity at 0.01 µM is 96.8 ± 1.2%, the activity at 0.1 µM is 106 ± 5.6% and the activity at 1 µM came out at 0%.

As for `O=C(c1ccc(CN(Cc2ccc(OCCCN3CCCCC3)cc2)Cc2ccco2)cc1)N1CCc2ccc(O)cc2C1` [Compound 22, (4-{[(furan-2-ylmethyl){4-[3-(piperidin-1-yl)propoxy]benzyl}amino]methyl}phenyl)(7-hydroxy-3,4-dihydroisoquinolin-2(1H)-yl)methanone], in the assay on T-47D cells, the activity at 0.01 µM worked out at 95.6 ± 1.8%, the activity at 0.1 µM came out at 120 ± 4.8% and the activity at 1 µM worked out at 134 ± 3%.

Turning to `O=C(c1ccc(CN(CCCn2ccnc2)Cc2ccccn2)cc1)N1CCc2ccc(O)cc2C1` [Compound 23, (7-hydroxy-3,4-dihydroisoquinolin-2(1H)-yl)[4-({[3-(1H-imidazol-1-yl)propyl](pyridin-2-ylmethyl)amino}methyl)phenyl]methanone], in the assay with T-47D cells, the activity at 0.01 µM was 103 ± 2.2%, the activity at 0.1 µM worked out at 113 ± 3.7% and the activity at 1 µM stood at 39.2 ± 2.9%.

For `O=C(c1ccc(CN(CCCn2ccnc2)Cc2ccco2)cc1)N1CCc2ccc(O)cc2C1` [Compound 24, [4-({(furan-2-ylmethyl)[3-(1H-imidazol-1-yl)propyl]amino}methyl)phenyl](7-hydroxy-3,4-dihydroisoquinolin-2(1H)-yl)methanone], in the assay on T-47D cells, the activity at 0.01 µM was determined as 94.9 ± 1.3%, the activity at 0.1 µM was found to be 98.5 ± 4.5% and the activity at 1 µM was determined as 115 ± 5.9%.

As for `O=C(c1ccc(CN(Cc2ccc(Br)cc2)Cc2ccco2)cc1)N1CCc2ccc(O)cc2C1` [Compound 26, (4-{[(4-bromobenzyl)(furan-2-ylmethyl)amino]methyl}phenyl)(7-hydroxy-3,4-dihydroisoquinolin-2(1H)-yl)methanone], in the assay on T-47D cells, the activity at 0.01 µM is 106.3 ± 0.6%, the activity at 0.1 µM turned out to be 109 ± 1.2% and the activity at 1 µM is 59.2 ± 3.1%.

As for `O=C(c1ccc(CN(CCN2CCOCC2)Cc2ccco2)cc1)N1CCc2ccc(O)cc2C1` [Compound 27, [4-({(furan-2-ylmethyl)[2-(morpholin-4-yl)ethyl]amino}methyl)phenyl](7-hydroxy-3,4-dihydroisoquinolin-2(1H)-yl)methanone], in the assay on T-47D cells, the activity at 0.01 µM is 108 ± 5.5%, the activity at 0.1 µM turned out to be 106 ± 1.5% and the activity at 1 µM was determined as 119 ± 9.6%.
